Test results: patent publication US20250313563A1, “GLYCOGEN SYNTHASE KINASE 3 INHIBITORS AND USES THEREOF” (The Broad Institute, Inc., priority 2022, published 2025)
Like-named read-outs stand apart in the source and are kept apart here.

What was measured:
[1] = target: GSK3α (GST-full length GSK3α) (Homo sapiens (Human), UniProt P49840); assay: GSK3α TR-FRET kinase assay; type: biochemical
Summary of the method: (§1)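 Readout: anti-pSer641 Tb antibody/streptavidin-d2 signal after 60 min, expressed as 665/615 ratio and fitted versus log concentration for IC50. Enzyme: 1 nM GST-GSK3 (α or β), compound-preincubated 30 min. Conditions: pH 7.5 Tris buffer with MgCl2, DTT, BSA; ATP at 4 or 2 μM, or 1 mM; 100 min.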

[2] = target: GSK3b (GST-full length GSK3b) (Homo sapiens (Human), UniProt P49841); assay: GSK3b TR-FRET kinase assay; type: biochemical
Summary of the method: as §1

[3] = 1 nM GSK3α, 4 μM ATP, 30 minute preincubation, Table 16, read-out: GSK3-A TR-FRET BIOCHEMICAL (TR-FRET), IC50
[4] = 1 nM GSK3b, 2 μM ATP, 30 minute preincubation, Table 16, read-out: GSK3-B TR-FRET BIOCHEMICAL (TR-FRET), IC50
[5] = read-out: GSK3-A (TR-FRET 1 mM ATP), GMean, IC50, 1 mM ATP, geometric mean
[6] = read-out: GSK3-B (TR-FRET 1 mM ATP), GMean, IC50, 1 mM ATP, geometric mean
[7] = 1 nM GSK3α, 4 μM ATP, 30 minute preincubation, Table 16, read-out: GSK3-A TR-FRET BIOCHEMICAL (TR-FRET)
[8] = 1 nM GSK3b, 2 μM ATP, 30 minute preincubation, Table 16, read-out: GSK3-B TR-FRET BIOCHEMICAL (TR-FRET)
[9] = GSK3-A (TR-FRET 1 mM ATP), GMean, IC50, 1 mM ATP, geometric mean
[10] = GSK3-B (TR-FRET 1 mM ATP), GMean, IC50, 1 mM ATP, geometric mean
[11] = 1 nM GSK3α, 4 μM ATP, 30 minute preincubation, read-out: GSK3-A TR-FRET BIOCHEMICAL (TR-FRET), IC50
[12] = 1 nM GSK3b, 2 μM ATP, 30 minute preincubation, read-out: GSK3-B TR-FRET BIOCHEMICAL (TR-FRET), IC50

Chain of GSK3b (GST-full length GSK3b) (P49841 whole entry): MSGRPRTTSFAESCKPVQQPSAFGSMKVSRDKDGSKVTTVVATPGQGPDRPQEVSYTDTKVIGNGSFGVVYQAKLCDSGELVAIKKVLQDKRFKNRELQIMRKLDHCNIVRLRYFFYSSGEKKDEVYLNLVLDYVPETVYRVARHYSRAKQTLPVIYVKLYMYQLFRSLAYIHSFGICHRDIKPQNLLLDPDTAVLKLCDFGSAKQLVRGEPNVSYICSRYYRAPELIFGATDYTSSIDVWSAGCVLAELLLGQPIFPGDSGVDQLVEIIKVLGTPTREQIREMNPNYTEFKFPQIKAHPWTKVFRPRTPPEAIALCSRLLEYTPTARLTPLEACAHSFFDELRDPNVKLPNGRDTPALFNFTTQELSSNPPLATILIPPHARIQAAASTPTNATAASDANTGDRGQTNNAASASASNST
Chain of GSK3α (GST-full length GSK3α) (P49840 whole entry): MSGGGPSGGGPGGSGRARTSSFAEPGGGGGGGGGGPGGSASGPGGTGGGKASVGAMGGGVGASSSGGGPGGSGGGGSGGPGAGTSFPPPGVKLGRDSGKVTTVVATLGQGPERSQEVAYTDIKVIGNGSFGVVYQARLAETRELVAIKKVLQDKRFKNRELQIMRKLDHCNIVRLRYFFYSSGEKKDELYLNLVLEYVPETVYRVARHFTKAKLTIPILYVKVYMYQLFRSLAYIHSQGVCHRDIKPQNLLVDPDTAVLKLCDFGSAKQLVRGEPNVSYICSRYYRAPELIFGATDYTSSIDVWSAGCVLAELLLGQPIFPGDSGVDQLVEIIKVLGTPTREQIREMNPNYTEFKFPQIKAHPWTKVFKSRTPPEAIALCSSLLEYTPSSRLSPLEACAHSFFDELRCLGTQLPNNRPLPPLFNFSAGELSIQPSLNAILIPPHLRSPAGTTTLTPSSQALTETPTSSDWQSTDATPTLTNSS

| Structure (SMILES) | IC50 [1, 3] | IC50 [2, 4] | other results |
| --- | --- | --- | --- |
| CC1(C)CC(=O)C2=C(C1)Nc1n[nH]cc1C21CCCSCC1 (stereo not drawn) [Compound 913126] | – | – | IC50 [1, 7]: ≤ 100 nM; IC50 [2, 8]: 100 to 1000 nM |
| CC1(C)CC(=O)C2=C(C1)Nc1n[nH]cc1C21CCN(S(=O)(=O)C2CCOCC2)CC1 [Compound 913127] | ≤ 100 nM | ≤ 100 nM | IC50 [1, 9]: ≤ 100 nM; IC50 [2, 10]: 100 to 1000 nM |
| CC1(C)CC(=O)C2=C(C1)Nc1n[nH]cc1C21CCN(S(=O)(=O)C2CCCCC2)CC1 [Compound 913128] | ≤ 100 nM | ≤ 100 nM | IC50 [1, 9]: ≤ 100 nM; IC50 [2, 10]: 100 to 1000 nM |
| CC(C)S(=O)(=O)N1CCC2(CC1)C1=C(CC(C)(C)CC1=O)Nc1n[nH]cc12 [Compound 913129] | ≤ 100 nM | ≤ 100 nM | IC50 [1, 9]: ≤ 100 nM; IC50 [2, 10]: 100 to 1000 nM |
| CC1(C)CC(=O)C2=C(C1)Nc1n[nH]cc1[C@]21C[C@@]2(CCN(CC(F)F)C2)C1 [Compound 913139] | – | – | IC50 [1, 11]: 100 to 1000 nM; IC50 [2, 12]: 100 to 1000 nM |
| CCC1(c2cccc(C(F)(F)F)c2)C2=C(CNC2=O)Nc2n[nH]cc21 (stereo not drawn) [Compound 913156] | – | – | IC50 [1, 7]: 100 to 1000 nM; IC50 [2, 8]: > 5000 nM |
| CCC1(c2cccc(C(C)(C)F)c2)C2=C(CCN(C)C2=O)Nc2n[nH]cc21 (stereo not drawn) [Compound 913178] | – | – | IC50 [1, 11]: 100 to 1000 nM; IC50 [2, 12]: 1000 to 5000 nM |
| CC1(C)CC(=O)C2=C(C1)Nc1n[nH]cc1[C@]21CO[C@H](C2CC2)C1 [Compound 913184] | 100 to 1000 nM | 1000 to 5000 nM | – |
| CCC1(c2cccc(C(F)(F)F)c2)C2=C(Nc3n[nH]cc31)C(C)(C)N(C)C2=O (stereo not drawn) [Compound 913198] | – | – | IC50 [1, 7]: ≤ 100 nM; IC50 [2, 8]: 100 to 1000 nM |
| CC[C@@H]1C[C@@]2(CO1)C1=C(CC(C)(C)CC1=O)Nc1n[nH]cc12 [Compound 913213] | – | – | IC50 [1, 7]: 100 to 1000 nM; IC50 [2, 8]: 1000 to 5000 nM |
| CC[C@H]1C[C@@]2(CO1)C1=C(CC(C)(C)CC1=O)Nc1n[nH]cc12 [Compound 913214] | – | – | IC50 [1, 7]: 100 to 1000 nM; IC50 [2, 8]: 1000 to 5000 nM |
| CC[C@@H]1C[C@]2(CO1)C1=C(CC(C)(C)CC1=O)Nc1n[nH]cc12 [Compound 913215] | – | – | IC50 [1, 7]: 100 to 1000 nM; IC50 [2, 8]: 1000 to 5000 nM |
| CC[C@H]1C[C@]2(CO1)C1=C(CC(C)(C)CC1=O)Nc1n[nH]cc12 [Compound 913216] | – | – | IC50 [1, 7]: 100 to 1000 nM; IC50 [2, 8]: 100 to 1000 nM |
| CC1(C)CC(=O)C2=C(C1)Nc1n[nH]cc1C21CCCc2ccccc21 (stereo not drawn) [Compound 913219] | ≤ 100 nM | 100 to 1000 nM | – |

Second part, led by results:

| IC50 [1, 3] | IC50 [2, 4] | Structure (SMILES) | other results |
| --- | --- | --- | --- |
| ≤ 100 nM | 100 to 1000 nM | CCC1(c2cccc(N(C)c3cccc(OC)n3)c2)C2=C(CC(C)(C)CC2=O)Nc2n[nH]cc21 (stereo not drawn) [Compound 913121] | – |
| 100 to 1000 nM | 100 to 1000 nM | CCC1(c2cccc(N(C)c3cccc(C(F)(F)F)n3)c2)C2=C(CC(C)(C)CC2=O)Nc2n[nH]cc21 (stereo not drawn) [Compound 913122] | – |
| ≤ 100 nM | ≤ 100 nM | CCC1(c2cccc(S(=O)(=O)c3ccccc3)c2)C2=C(CC(C)(C)CC2=O)Nc2n[nH]cc21 (stereo not drawn) [Compound 913123] | IC50 [1, 5]: ≤ 100 nM; IC50 [2, 6]: 100 to 1000 nM |
| 100 to 1000 nM | 100 to 1000 nM | CCC1(c2cc(N(C)C(C)=O)ccc2F)C2=C(CC(C)(C)CC2=O)Nc2n[nH]cc21 (stereo not drawn) [Compound 913124] | – |
| ≤ 100 nM | 100 to 1000 nM | CCC1(c2cccc(N(C)C(=O)CN3CCCC3)c2)C2=C(CC(C)(C)CC2=O)Nc2n[nH]cc21 (stereo not drawn) [Compound 913125] | – |
| 100 to 1000 nM | 1000 to 5000 nM | CCC1(c2cccc(S(=O)(=O)C(C)C)c2)C2=C(CC(C)(C)CC2=O)Nc2n[nH]cc21 (stereo not drawn) [Compound 913134] | – |
| ≤ 100 nM | ≤ 100 nM | CCC1(c2cccc(S(=O)(=O)C(C)C)c2)C2=C(CC(C)(C)CC2=O)Nc2n[nH]cc21 (stereo not drawn) [Compound 913135] | IC50 [1, 5]: ≤ 100 nM; IC50 [2, 6]: 100 to 1000 nM |
| ≤ 100 nM | 100 to 1000 nM | Cc1cccc2c1CC[C@]21C2=C(CC(C)(C)CC2=O)Nc2n[nH]cc21 [Compound 913136] | – |
| > 5000 nM | > 5000 nM | Cc1cccc2c1CC[C@@]21C2=C(CC(C)(C)CC2=O)Nc2n[nH]cc21 [Compound 913137] | – |
| ≤ 100 nM | 100 to 1000 nM | CC[C@@]1(c2cccc(N3CCC3(C)C)c2)C2=C(CC(C)(C)CC2=O)Nc2n[nH]cc21 [Compound 913140] | – |
| 100 to 1000 nM | 1000 to 5000 nM | CCC1(c2cccc(N3CCC3(C)C)c2)C2=C(CC(C)(C)CC2=O)Nc2n[nH]cc21 (stereo not drawn) [Compound 913141] | – |
